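Following 48 hours of exposure in 96-well plates, responses at five concentrations were used to interpolate endpoints linearly. GI50 marks 50% less growth. TGI marks complete inhibition of growth.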
Columns and labels:
Assay in all cases: NCI-60 cell line screen, 48 h
TK-10 renal = tested on: TK-10 renal
HOP-62 NSCLC = tested on: HOP-62 NSCLC
MALME-3M melanoma = tested on: MALME-3M melanoma
SR leukemia = tested on: SR leukemia
SNB-19 CNS = tested on: SNB-19 CNS
RPMI-8226 leukemia = tested on: RPMI-8226 leukemia
SF-295 CNS = tested on: SF-295 CNS
LOX IMVI melanoma = tested on: LOX IMVI melanoma
PC-3 prostate = tested on: PC-3 prostate
MDA-MB-231 breast = tested on: MDA-MB-231 breast

| SMILES | TGI (TK-10 renal) | TGI (HOP-62 NSCLC) | TGI (MALME-3M melanoma) | TGI (SR leukemia) | TGI (SNB-19 CNS) | TGI (RPMI-8226 leukemia) | TGI (SF-295 CNS) | TGI (LOX IMVI melanoma) | GI50 (TK-10 renal) | GI50 (PC-3 prostate) | TGI (PC-3 prostate) | GI50 (HOP-62 NSCLC) | GI50 (LOX IMVI melanoma) | GI50 (SNB-19 CNS) | GI50 (MDA-MB-231 breast) | TGI (MDA-MB-231 breast) | GI50 (RPMI-8226 leukemia) | GI50 (SF-295 CNS) | GI50 (SR leukemia) | GI50 (MALME-3M melanoma) |
| --- | --- | --- | --- | --- | --- | --- | --- | --- | --- | --- | --- | --- | --- | --- | --- | --- | --- | --- | --- | --- |
| C/C(CN1C(=O)c2ccccc2C1=O)=N\NS(=O)(=O)c1cccc(C(=O)O)c1 | > 100 µM | > 100 µM | > 100 µM | > 100 µM | > 100 µM | > 100 µM | > 100 µM | – | – | – | – | – | – | – | – | – | – | – | – | – |
| O=C(O)CCNS(=O)(=O)c1ccc2ccccc2c1 | > 100 µM | – | > 100 µM | – | > 100 µM | > 100 µM | > 100 µM | > 100 µM | – | – | – | – | – | – | – | – | – | – | – | – |
| ClCc1ccccc1Cn1cnc2ncnc(Cl)c21 | 9.57 µM | 29 µM | – | – | > 100 µM | 5.45 µM | 20.5 µM | 3.07 µM | 3.5 µM | 4.51 µM | 19.2 µM | 11.1 µM | 1.34 µM | 7.3 µM | 2.78 µM | 6.97 µM | 2.09 µM | 7.93 µM | – | – |
| c1ccc(OCCC[P+](c2ccccc2)(c2ccccc2)c2ccccc2)cc1 | – | 42.8 µM | – | 11.4 µM | 17.8 µM | 3.66 µM | 7.77 µM | 6.75 µM | – | 0.58 µM | 6.17 µM | 4.55 µM | 2.18 µM | 2.27 µM | 2.33 µM | 11.2 µM | 0.303 µM | 1.97 µM | 0.646 µM | – |
| CCC[CH2][Sn]([CH2]CCC)([S]C#N)[S]C#N | 2.4 µM | 3.58 µM | 2.27 µM | 2.54 µM | 2.36 µM | 1.34 µM | 2.94 µM | 2.47 µM | 1.11 µM | – | – | 1.98 µM | 0.85 µM | 1.12 µM | – | – | 0.229 µM | 1.53 µM | 0.36 µM | 0.753 µM |
| [N-]=[N+]=NCCCn1c2c(c3ccc([N+](=O)[O-])cc3c1=O)C(=O)c1cc(Br)ccc1-2 | > 100 µM | > 100 µM | > 100 µM | – | > 100 µM | > 100 µM | > 100 µM | > 100 µM | > 100 µM | > 100 µM | > 100 µM | 56.1 µM | > 100 µM | > 100 µM | > 100 µM | > 100 µM | > 100 µM | 1.66 µM | – | > 100 µM |
| COc1ccc(/C=C/c2c(C(=O)/C=C/c3ccc(C(F)(F)F)cc3)c(C)nc3ccccc23)cc1 | 4.38 µM | – | 3.19 µM | > 100 µM | 3.05 µM | 7.65 µM | 3.28 µM | 2.74 µM | 2.56 µM | 1.83 µM | 5.58 µM | – | 1.37 µM | 1.62 µM | – | – | 0.807 µM | 1.71 µM | 0.599 µM | 1.71 µM |
| CC(C)c1cc(C(C)C)c(S(=O)(=O)N=[N+]=[N-])c(C(C)C)c1 | > 100 µM | > 100 µM | > 100 µM | > 100 µM | > 100 µM | 97.6 µM | – | > 100 µM | – | – | – | – | – | – | – | – | – | – | – | – |

Source: PubChem BioAssay (NCI)
